Experimental findings from patent publication US8410152B2 (Max-Planck-Gesellschaft zur Forderung der Wissenschaften e. …, priority 2006, dated 2013) are described below.

In one data set the target is tau construct K19 (Homo sapiens, UniProt P10636). The data set is described as follows: Thioflavine S (ThS) assay for aggregation of tau. It is filed as biochemical. The protocol:
Thioflavine S (ThS) Assay for aggregation of tau: 10 μM of the tau construct K19 were incubated with compounds in a concentration range from 1 nM up to 200 μM in the presence of 2.5 μM heparin in 50 mM NH4Ac buffer over night at 37° C. After addition of 20 μM ThS the signal was measured at 521 nm (emission) at an excitation wavelength of 440 nm. The results of this assay are presented in the IC50 column and DC50 column of Table 1 below.

The next data set relates to uninduced N2A cells. It is filed as cell-based. As to conditions: cell death as percent of LDH released into medium vs total LDH, compound 10 μM. An outline of the steps: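 Compound at 10 μM final was added to uninduced N2A cells. LDH activity was read at 492 nm. Cell death was expressed as percent LDH released into medium relative to total LDH after full cell lysis.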
On the technique in general: Release of lactate dehydrogenase indicates damage to the cell membrane.

The test system of a further data set is N2a/K18ΔK280 cells. The data set is described as follows: Tau aggregation and inhibition assay in cells (ThS staining). It is filed as cell-based. As to conditions: for inhibition at 10 µM: 120 h, read-out: Inhibition in cells; for Inhibition in cells (result in words: cytotoxicity): compound 10 μM. The protocol: Selection of an N2a, Tet-On, G418-resistant cell line: N2a cells were cotransfected with both the pUHD172-1 plasmid (encoding the rtTA, obtained from H. Bujard, Heidelberg) and pEU-1 plasmid (encoding G418 resistance, a derivative of pRc/CMV, Invitrogen) (ratio 20:1; 1 μg/well of 6-well plates) using the DOTAP transfection reagent (Roche, Basel, CH). The cells were cultured in Eagle's Minimum Essential Medium (MEM) supplemented with 10% defined fetal bovine serum and subjected to G418 (600 μg/ml) and selection. The cells were fed with fresh media every 4 days for 3-4 weeks when single colonies appeared. Clones were tested for the induction level by transient transfection of pUHG 16-3 plasmid and the induction of β-galactosidase was measured.
Generation of inducible Tet-On cell lines: The DNA fragments encoding the appropriate tau constructs (K18WT, K18ΔK280, K18/ΔK280/PP) were inserted into the bidirectional vector pBI-5 between ClaI and SalI restriction sites (pBI-5 is an unpublished derivative of pBI-2, Baron et al., 1995). The pBI-5/K18-derived plasmids with pX343 (plasmid encoding the hygromycin resistance) were used for cotransfection of N2a/Tet-On, G418-resistant cells with the aid of DOTAP (20:1 plasmid ratio; 1 μg/well of 6-well plates). The cells were seeded at 4×10^5 cells per well. On the following day cells were transferred to 100-mm dishes and selected with 100 μg/ml of hygromycin and 600 μg/ml of G418. Clonal cell lines were screened for the inducible expression of K18 derivatives by measuring luciferase activity with the luciferase assay and immunofluorescence for tau protein with the polyclonal pan-tau antibody K9JA.
Induction of K18-derivatives in Tet-On N2a cells: The inducible N2a/K18-derivatives cells were cultured in MEM medium supplemented with 10% fetal calf serum, 2 mM glutamine and 0.1% nonessential amino acids. The expression of K18 constructs was induced by adding 1 μg doxycyclin (Dox) per 1 ml medium. The induction was continued for 7-11 days, the medium was changed 3 times (always complemented with doxycyclin). For tau solubility assays the cells were collected by pelleting during centrifugation at 1000×g for 5 min. The levels and solubility of tau K18/ΔK280 were determined following Greenberg and Davies (1990). The cells were homogenized (DIAX900, Heidolph, Schwabach, Germany) in 10 vol (w/v) of buffer consisting of 10 mM Tris-HCl (pH 7.4), 0.8 M NaCl, 1 mM EGTA, and 10% sucrose. The homogenate was spun for 20 min at 20000×g, and the supernatant was retained. The pellet was re-homogenized in 5 vol of homogenization buffer and re-centrifuged. Both supernatants were combined, brought to 1% N-laurylsarkosinate (w/v) and incubated for 1 hr at room temperature while shaking, followed by centrifugation at 100 000×g for 1 hr. The sarkosyl-insoluble pellets were resuspended in 50 mM Tris-HCl (pH 7.4), 0.5 ml per 1 g of starting material. The supernatant and sarkosyl-insoluble pellet samples were analyzed by Western blotting. The amount of material loaded for supernatant and sarkosyl-insoluble pellet represented about 0.5% and 15% of the total material present in the supernatant and pellet respectively (the ratio between supernatant and sarkosyl insoluble pellet was always 1:30). For quantification of tau levels in each fraction, the Western blots were probed with pan-tau antibody K9JA and analyzed by densitometry (LAS 3000 and AIDA software, Raytest, Straubenhardt, Germany).
Quantitation of tau aggregation in cells by Thioflavin S (ThS) staining: Tet-On inducible undifferentiated N2a cells were treated with 1 μg/ml doxycyclin for 5, 7 or 9 days in a culture dish. After that the cells were trypsinized and transferred to coverslips and incubated overnight. The cells on the coverslips were fixed with 4% paraformaldehyde in PBS for 15 min, then permeabilized with 80% MeOH for 6 min at −20° C., and incubated with 0.1% Thioflavin S for 5 min and washed three times in ethanol (50%). […]

For another data set, the target named is tau construct K18 (Homo sapiens, UniProt P10636). Briefly: STD-NMR determination of dissociation constant. As to conditions: STD-NMR titration data for proton I, 10 μM soluble K18, PBS/D2O, 295 K; read-out: KD of K18-BSc3094 complex. The class given is binding. The protocol: STD-NMR: All STD NMR experiments were made in 3 mm Match® tubes in a 700 MHz spectrometer with cryogenic probe head at 295 K. The quantity of protein was kept small by the small diameter of the sample tubes. The spectra were measured with a spectral width of 11.0208 ppm and 32k data points with application of the WATERGATE water suppression (w5-sequence). The suppression of the protein resonances was reached by a spin lock pulse with a length of 15 ms and a attenuation of 11 dB. We used a pulse program in which the presaturation was accomplished alternating after each scan for the on and off resonance experiment at the selected frequencies. Thus artefacts are prevented during the difference formation due to in homogeneities. As point of irradiation for the on resonance experiments we selected 540 Hz (0.77 ppm). As point of irradiating for the off resonance experiments 40,000 Hz (57.1 ppm) was selected. The saturation duration in all experiments was 4 seconds, the attenuation of the saturation power 45 dB. 2044 scans were collected per experiment. After phase correction the FID was multiplied by an exponential function to improve the signal to noise ratio, which caused a line broadening of 1 Hz.
tau construct K18, sequence (P10636 with tags, fused parts or gaps isoform P10636-8 limits assumed): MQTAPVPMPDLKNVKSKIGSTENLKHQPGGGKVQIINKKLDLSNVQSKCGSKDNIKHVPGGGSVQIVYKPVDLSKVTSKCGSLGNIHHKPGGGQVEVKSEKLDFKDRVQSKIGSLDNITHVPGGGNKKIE
For the determination of the dissociation constant a sample with 10 μM soluble K18 and 80 μM DTT-d6 in 200 μL PBS/D2O was prepared. […]

Where [1] appears, read: 10 μM tau construct K19, 2.5 μM heparin, ThS fluorescence, read-out: DC50.
The mark [2] stands for this setting: 10 μM tau construct K19, 2.5 μM heparin, over night at 37° C., ThS fluorescence, read-out: ID50 (the source's name).
The mark [3] stands for this setting: N2a/K18ΔK280 cells, compound 10 μM with doxycyclin, 5 days, ThS-positive cells scored.
Setting [4] is: 10 μM tau construct K19, 2.5 μM heparin, ThS fluorescence.

Where two headings read alike, the source gives them in different places. A value given as a limit tells only on which side of the number the result lay.

tau construct K19, sequence (P10636 with tags, fused parts or gaps isoform P10636-2 limits assumed): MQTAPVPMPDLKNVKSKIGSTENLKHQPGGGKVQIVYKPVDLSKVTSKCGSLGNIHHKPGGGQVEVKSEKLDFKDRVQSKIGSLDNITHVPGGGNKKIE

As to `O=C(NNc1nc(-c2ccc([N+](=O)[O-])cc2)cs1)c1ccc2[nH]cnc2c1` [Comp. 8, N′-[4-(4-Nitrophenyl)-1,3-thiazol-2-yl]-1H-benzimidazole-5-carbohydrazide], at tau construct K19 (setting [1]), the DC50 amounted to 0.7 µM. In addition, at tau construct K19 (setting [2]), the IC50 stood at 1.6 µM. The LDH in the data set with uninduced N2A cells is given as 5.2%. The inhibition at 10 µM in the data set on N2a/K18ΔK280 cells (setting [3]) is 82.2%. Also, at tau construct K18, the Kd is 62 ± 12 µM.

For the compound `O=C(NNc1nc(-c2ccc([N+](=O)[O-])cc2)cs1)c1ccc(-c2ccccc2)cc1` [Comp. 7, N′-[4-(4-nitrophenyl)-1,3-thiazol-2-yl]-1,1′-biphenyl-4-carbohydrazide], the DC50 on tau construct K19 (setting [1]) turned out to be 1.2 µM. In addition, the IC50 on tau construct K19 (setting [2]) came out at 1.3 µM. For the same compound, in the data set with uninduced N2A cells, the LDH came to 5.0%. Also, the inhibition at 10 µM with N2a/K18ΔK280 cells (setting [3]) was 69.7%.

As for `O=C(NNc1nc(-c2ccc(N3CCCC3)cc2)cs1)c1ccc(-c2ccccc2)cc1` [Comp. 9, N′-[4-(4-pyrrolidin-1-ylphenyl)-1,3-thiazol-2-yl]-1,1′-biphenyl-4-carbohydrazide], the DC50 on tau construct K19 (setting [1]) was determined as 1 µM. Further, the IC50 at tau construct K19 (setting [2]) stood at 1.9 µM. Further, the LDH in the data set on uninduced N2A cells worked out at 6.2%. In the data set on N2a/K18ΔK280 cells (setting [3]), the inhibition at 10 µM was 60.5%.

As for `COc1cc(-c2csc(NNC(=O)c3cc4ccccc4[nH]3)n2)cc(OC)c1O` [Comp. 53, N′-[4-(4-hydroxy-3,5-dimethoxyphenyl)-1,3-thiazol-2-yl]-1H-indole-2-carbohydrazide], the IC50 on tau construct K19 turned out to be 171 µM. Besides, the DC50 on tau construct K19 (setting [4]) was above 200 µM. Moreover, in the data set with uninduced N2A cells, the LDH was −7.3%. In addition, the inhibition at 10 µM in the data set with N2a/K18ΔK280 cells stood at 49.9%.

As to `O=C(NNc1nc(-c2ccccc2Br)cs1)c1cc2ccccc2[nH]1` [Comp. 60, N′-[4-(2-bromophenyl)-1,3-thiazol-2-yl]-1H-indole-2-carbohydrazide], on tau construct K19, the IC50 was above 200 µM. On tau construct K19 (setting [4]), the DC50 is above 200 µM. Also, the LDH in the data set with uninduced N2A cells is recorded as 0.1%. Further, the inhibition at 10 µM with N2a/K18ΔK280 cells is 41.5%.

As for `O=C(NNc1nc(C2C3CC4CC(C3)CC2C4)cs1)c1cc2ccccc2[nH]1` (centres unmarked) [Comp. 54, N′-[4-(2-adamantyl)-1,3-thiazol-2-yl]-1H-indole-2-carbohydrazide], the IC50 at tau construct K19 was above 200 µM. In addition, at tau construct K19 (setting [4]), the DC50 was above 200 µM. Also, the LDH in the data set with uninduced N2A cells is on record as −2.1%. Moreover, the inhibition at 10 µM in the data set on N2a/K18ΔK280 cells was 56.6%.

With `Cc1nc(NNC(=O)c2ccc3[nH]cnc3c2)sc1-c1ccc(Br)cc1` [Comp. 62, N′-[5-(4-bromophenyl)-4-methyl-1,3-thiazol-2-yl]-1H-benzimidazole-5-carbohydrazide], the DC50 on tau construct K19 (setting [1]) is 38.1 µM. Further, on tau construct K19 (setting [2]), the IC50 came to 33.5 µM. Further, in the data set on uninduced N2A cells, the LDH is on record as −2.8%. Besides, the inhibition at 10 µM in the data set with N2a/K18ΔK280 cells amounted to 68.3%.

As to `N#Cc1ccc(-c2csc(NNC(=O)c3cccc(F)c3)n2)cc1` [Comp. 67, N′-[4-(4-cyanophenyl)-1,3-thiazol-2-yl]-3-fluorobenzohydrazide], the DC50 at tau construct K19 (setting [1]) worked out at 28.7 µM. The IC50 at tau construct K19 (setting [2]) is 19.7 µM. Besides, the LDH in the data set on uninduced N2A cells is 19.8%. Further, the “Inhibition in cells (result in words: cytotoxicity)” value in the data set on N2a/K18ΔK280 cells (N2a/K18ΔK280 cells, 5 days) was “Cytotoxic at 5 d”.

With `Cc1nc(NNC(=O)c2ccc(F)cc2)sc1-c1ccc(Br)cc1` [Comp. 63, N′-[5-(4-bromophenyl)-4-methyl-1,3-thiazol-2-yl]-4-fluorobenzohydrazide], the DC50 on tau construct K19 (setting [1]) stood at 15.9 µM. For the same compound, on tau construct K19 (setting [2]), the IC50 is 13.6 µM. In the data set on uninduced N2A cells, the LDH turned out to be 1.2%. Further, the inhibition at 10 µM with N2a/K18ΔK280 cells turned out to be 50%.

Consider `O=C(NNc1nc(-c2ccc(N3CCCC3)cc2)cs1)c1cccnc1` [Comp. 10, N′-[4-(4-pyrrolidin-1-ylphenyl)-1,3-thiazol-2-yl]nicotinohydrazide], for which the DC50 at tau construct K19 (setting [1]) was 1.4 µM. Besides, on tau construct K19 (setting [2]), the IC50 was determined as 2 µM. Besides, in the data set on uninduced N2A cells, the LDH is given as 12.5%. The inhibition at 10 µM in the data set on N2a/K18ΔK280 cells (setting [3]) worked out at 62.5%.

Regarding `Cc1sc(NNC(=O)c2ccc(-c3ccccc3)cc2)nc1-c1ccc([N+](=O)[O-])cc1` [Comp. 61, N′-[5-methyl-4-(4-nitrophenyl)-1,3-thiazol-2-yl]-1,1′-biphenyl-4-carbohydrazide], at tau construct K19 (setting [1]), the DC50 was 13.6 µM. Further, the IC50 on tau construct K19 (setting [2]) is 9.8 µM. Moreover, in the data set with uninduced N2A cells, the LDH is 16.6%. In addition, in the data set with N2a/K18ΔK280 cells (setting [3]), the inhibition at 10 µM turned out to be 62.6%.

With `O=C(NNc1nc(-c2ccc(-c3ccccc3)cc2)cs1)c1cc2ccccc2[nH]1` [Comp. 58, N′-[4-(1,1′-biphenyl-4-yl)-1,3-thiazol-2-yl]-1H-indole-2-carbohydrazide], the IC50 against tau construct K19 is 98.9 µM. For the same compound, the DC50 at tau construct K19 (setting [4]) is above 200 µM. In addition, in the data set on uninduced N2A cells, the LDH is 54.5%. In the data set on N2a/K18ΔK280 cells (N2a/K18ΔK280 cells, 5 days), the “Inhibition in cells (result in words: cytotoxicity)” value is on record as “Cytotoxic at 5 d”.

Compound `N#Cc1ccc(-c2csc(NNC(=O)c3cc4ccccc4[nH]3)n2)cc1` [Comp. 57, N′-[4-(4-cyanophenyl)-1,3-thiazol-2-yl]-1H-indole-2-carbohydrazide] showed an IC50 on tau construct K19 above 200 µM. Further, the DC50 at tau construct K19 (setting [4]) is above 200 µM. Further, the LDH with uninduced N2A cells was determined as 2.7%. The inhibition at 10 µM in the data set with N2a/K18ΔK280 cells was 49.3%.

For orientation: inhibition means the percentage by which the read-out fell short of the control. Usually Kd stands for the equilibrium constant for the complex coming apart.
